Bridges are numbered along the chain shown (N, C = ends). Where no end group is shown, it is not given here.
Assays:
[1] = target: T1, RANKL (Homo sapiens, UniProt O14788); settings: Aoki et al., J Clin Invest 116: 1525, 2006; cited from earlier work
T1 sequence (O14788 140-317 limits assumed): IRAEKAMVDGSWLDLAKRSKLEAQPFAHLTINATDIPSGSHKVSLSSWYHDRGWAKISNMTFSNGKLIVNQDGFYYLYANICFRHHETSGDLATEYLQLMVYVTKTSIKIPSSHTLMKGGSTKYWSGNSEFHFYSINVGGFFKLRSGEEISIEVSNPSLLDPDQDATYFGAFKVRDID

[2] = test system: MC3T3-E1 cells; assay: DNA microarray analysis of MC3T3-E1 cells; format: cell-based, mouse; settings: 200 μM peptide D (acetate)
Description: MC3T3-E1 cells mixed with 10% FBS+αMEM (SIGMA) were seeded on a 10 cm dish (2×10^5 cells/well). After 12 hours, the medium was removed therefrom. […] The medium was partially removed at 12 and 96 hours, at which time TRIZOL solution (Invitrogen) (3 mL) was added to each well for cell lysis. Then, total RNA extraction was carried out by the method described in Example 15. Each extracted total RNA (2 μg) was subjected to DNA microarray analysis (Mouse Genome 430 2.0 Affymetrix). In addition, scanning was performed with a GeneChip Scanner 3000 (Affymetrix 690036) and digitalization was performed with the Gene Chip Operating Software ver. 1.4.

[3] = test system: Smad1/5/8; assay: Western blotting of Smad1/5/8 phosphorylation in MC3T3-E1 cells; format: cell-based, mouse; settings: up to 3 hours after the addition; 200 μM peptide D or 200 ng/ml BMP-2
Description: MC3T3-E1 cells mixed with 10% FBS+αMEM (SIGMA) were seeded on a 6-well plate (7.5×10^4 cells/well). […] The medium was removed at the respective time points shown in the relevant figures. PBS was added to the cells, and the cells were collected with a scraper (Falcon). A cell pellet was obtained via centrifugation at 1200 rpm for 5 min at 4° C. RIPA buffer (100 μL) was added to the collected pellet, for dissolution of the cellular membrane. Further, the resultant was centrifuged under conditions of 14500 rpm for 25 min at 4° C. The supernatant was collected as a cell extract. A portion of the cell extract was used for quantification of the protein concentration with the use of a BCA protein assay kit (PIERCE). For SDS-PAGE, a sample buffer in an amount that was ¼ that of the cell extract (Fermentas) was added thereto, followed by heating at 95° C. for 5 min. The prepared sample was applied in an amount of 7.5 or 10 μg to 10% polyacrylamide gel (BioRad), followed by electrophoresis at 170 V for 1 hour. After electrophoresis, the electrophoresed sample was transferred to a PVDF membrane (Millipore) at 80 mA for 40 min. The membrane was shaken in a blocking solution (Nacalai) at room temperature for 1 hour and then a primary antibody was added thereto, followed by shaking at room temperature for 1 hour at 4° C. for 12 hours. […]

peptide D: cyclic peptide of SEQ ID NO: 7, 9 amino acids, two cysteine residues bound via a disulfide bond; binds to RANKL (YCWSQYLCY; disulfide 2-8 (inferred))
binding to RANKL [1]: binds to RANKL | expression level of the osteocalcin (OC) gene [2]: increased sharply | gene expression levels of IRS-1, IGF-1, FGF receptor 2, PDGF receptor β, PDGF receptor α, CTGF, type I collagen α1 and α2 chains ([2]; 12 hours): increased significantly | gene expression levels of IGF-2, ALP, BMP-4, OC (osteocalcin), FGF2, PDGFc, PDGFα, PDGFβ ([2]; 96 hours): increased significantly | phosphorylation of Smad1/5/8 [3]: not induced

Reference: patent US20100260680A1, “NOVEL BONE MASS INCREASING AGENT” (ORIENTAL YEAST CO., LTD., priority 2007, published 2010)
